Measured values taken from PMC3701070 (PLoS ONE, 2013).

What was measured:
Experiment in all cases: Cell growth assay
Type in all cases: cell-based
T-84 = settings: Homo sapiens, T84, 72 h; T-84, RAF WT, KRAS(G13D), 3-day; read-out: gIC50
Method in brief: (§1)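 Reported figures are gIC50 values, i.e. IC50s for cell growth inhibition, obtained using CellTiter-Glo measured both at t = 0 and at 72 h.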

A549 = settings: Homo sapiens, 72 h; A549, RAF WT, KRAS(G12S), 3-day; read-out: gIC50
Method in brief: as §1

OV-90 = settings: Homo sapiens, 72 h; OV-90, BRAF(del486-490), RAS WT, 3-day; read-out: gIC50
Method in brief: as §1

NCI-H2122 = settings: Homo sapiens, 72 h; NCI-H2122, RAF WT, RAS WT, 3-day; read-out: gIC50
Method in brief: as §1

NCI-H187 = settings: Homo sapiens, 72 h; NCI-H187, RAF WT, RAS WT, 3-day; read-out: gIC50
Method in brief: as §1

OVCAR-3 = settings: Homo sapiens, 72 h; OVCAR-3, RAF WT, RAS WT, 3-day; read-out: gIC50
Method in brief: as §1

EFM-19 = settings: Homo sapiens, 72 h; EFM-19, RAF WT, RAS WT, 3-day; read-out: gIC50
Method in brief: as §1

HT-29 = settings: Homo sapiens, 72 h; HT-29, BRAF(V600E), RAS WT, 3-day; read-out: gIC50
Method in brief: as §1

Calu-6 = settings: Homo sapiens, 72 h; Calu-6, RAF WT, KRAS(Q61K), 3-day; read-out: gIC50
Method in brief: as §1

Kato III = settings: Homo sapiens, 72 h, RAF WT, RAS WT, 3-day, read-out: gIC50
Method in brief: as §1

Colo 205 = settings: Homo sapiens, 72 h; Colo 205, BRAF(V600E), RAS WT, 3-day; read-out: gIC50
Method in brief: as §1

HCC-70 = settings: Homo sapiens, HCC70, 72 h; HCC-70, RAF WT, RAS WT, 3-day; read-out: gIC50
Method in brief: as §1

CGTHW1 = settings: Homo sapiens, CGTH-W-1, 72 h; CGTHW1, RAF WT, RAS WT, 3-day; read-out: gIC50
Method in brief: as §1

C-4 I = settings: Homo sapiens, 72 h, RAF WT, RAS WT, 3-day, read-out: gIC50
Method in brief: as §1

NCI-H209 = settings: Homo sapiens, 72 h; NCI-H209, RAF WT, RAS WT, 3-day; read-out: gIC50
Method in brief: as §1

Raji = settings: Homo sapiens, 72 h, RAF WT, RAS WT, 3-day, read-out: gIC50
Method in brief: as §1

SW480 = settings: Homo sapiens, 72 h; SW480, RAF WT, KRAS(G12V), 3-day; read-out: gIC50
Method in brief: as §1

SCC-25 = settings: Homo sapiens, 72 h; SCC-25, RAF WT, RAS WT, 3-day; read-out: gIC50
Method in brief: as §1

G401 = settings: Homo sapiens, G-401, 72 h; G401, RAF WT, RAS WT, 3-day; read-out: gIC50
Method in brief: as §1

UACC-257 = settings: Homo sapiens, 72 h; UACC-257, BRAF(V600E), RAS WT, 3-day; read-out: gIC50
Method in brief: as §1

HL-60 = settings: Homo sapiens, 72 h; HL-60, RAF WT, RAS WT, 3-day; read-out: gIC50
Method in brief: as §1

FaDu = settings: Homo sapiens, 72 h, RAF WT, RAS WT, 3-day, read-out: gIC50
Method in brief: as §1

SaOS2 = settings: Homo sapiens, SAOS-2, 72 h; SaOS2, RAF WT, RAS WT, 3-day; read-out: gIC50
Method in brief: as §1

SW579 = settings: Homo sapiens, 72 h; SW579, RAF WT, RAS WT, 3-day; read-out: gIC50
Method in brief: as §1

HCC-2998 = settings: Homo sapiens, 72 h; HCC-2998, RAF WT, KRAS(A146T), 3-day; read-out: gIC50
Method in brief: as §1

RPMI-8226 = settings: Homo sapiens, 72 h; RPMI-8226, RAF WT, RAS WT, 3-day; read-out: gIC50
Method in brief: as §1

MCF-7 = settings: Homo sapiens, MCF7, 72 h; MCF-7, RAF WT, RAS WT, 3-day; read-out: gIC50
Method in brief: as §1

ES-2 = settings: Homo sapiens, 72 h; ES-2, BRAF(V600E), RAS WT, 3-day; read-out: gIC50
Method in brief: as §1

HT-1080 = settings: Homo sapiens, 72 h; HT-1080, RAF WT, RAS WT, 3-day; read-out: gIC50
Method in brief: as §1

KYSE-30 = settings: Homo sapiens, 72 h; KYSE-30, RAF WT, RAS WT, 3-day; read-out: gIC50
Method in brief: as §1

IGROV1 = settings: Homo sapiens, IGROV-1, 72 h; IGROV1, RAF WT, RAS WT, 3-day; read-out: gIC50
Method in brief: as §1

## CC(C)(C)c1nc(-c2cccc(NS(=O)(=O)c3c(F)cccc3F)c2F)c(-c2ccnc(N)n2)s1 [dabrafenib]
T-84
  IC50: > 10 µM
A549
  IC50: > 10 µM
OV-90
  IC50: 29 nM
NCI-H2122
  IC50: > 10 µM
NCI-H187
  IC50: > 10 µM
OVCAR-3
  IC50: > 10 µM
EFM-19
  IC50: > 10 µM
HT-29
  IC50: 66 nM
Calu-6
  IC50: > 10 µM
Kato III
  IC50: > 10 µM
Colo 205
  IC50: 7 nM
HCC-70
  IC50: > 10 µM
CGTHW1
  IC50: > 10 µM
C-4 I
  IC50: > 10 µM
NCI-H209
  IC50: > 10 µM
Raji
  IC50: > 10 µM
SW480
  IC50: > 10 µM
SCC-25
  IC50: > 10 µM
G401
  IC50: > 10 µM
UACC-257
  IC50: 6 nM
HL-60
  IC50: 2180 nM
FaDu
  IC50: > 10 µM
SaOS2
  IC50: > 10 µM
SW579
  IC50: > 10 µM
HCC-2998
  IC50: > 10 µM
RPMI-8226
  IC50: 263 nM
MCF-7
  IC50: > 10 µM
ES-2
  IC50: 53 nM
HT-1080
  IC50: 2000 nM
KYSE-30
  IC50: > 10 µM
IGROV1
  IC50: > 10 µM
